# What was measured:
# [1] = cited from earlier work
# [2] = organic solvents such as methanol, ethanol, and acetone; 'is understood to be'; cited from earlier work
# [3] = Dissolution profile, USP Apparatus 2 (Paddles), conditions of Table 1; format: physicochemical; conditions: sample containing 20 mg tadalafil, 1000 mL aqueous 0.15 wt % sodium lauryl sulfate and 6 g/L NaH2PO4, pH about 4.5, 37° C., 50 RPM, FIG. 2
# Method: Dissolution profiles described herein were determined in a dissolution vessel using a USP Apparatus 2 (Paddles) under the conditions described in Table 1. Samples were analyzed on-line by a UV detector.
# A sample of the dry powder P-00464, containing 20 mg tadalafil was collected and its dissolution profile determined according to the conditions in Table 1. The dissolution profile of P00464 was compared with the dissolution profiles of commercial versions of tadalafil tablets (Clalis® 20 mg) and active drug substance with a particle size distribution (PSD) such that the value of d(0.9)=˜(about) 50 μm. The results of dissolution testing are illustrated in FIG. 1.
# Samples of P-00464 from Example 1 and samples of tadalafil active material with PSD of d(0.9)=˜(about) 4 μm (designated TAPI AK-2186) were prepared for dissolution testing as described below. The dissolution profiles of the samples were determined according to the conditions in Table 1. The samples were analyzed on-line by UV detection, and were compared. FIG. 2 illustrates the averages of the samples for each drug. […]
tadalafil dissolved within 40 minutes [3],SMILES,"water solubility ([1]; 25° C., reported by U.S. Pat. No. 6,841,167)",solubility in water ([1]; 'is understood to be'),solubility in some organic solvents [2]
–,"CN1CC(=O)N2[C@H](c3ccc4c(c3)OCO4)c3[nH]c4ccccc4c3C[C@@H]2C1=O [tadalafil, (6R-trans)-6-(1,3-benzodioxol-5-yl)-2,3,6,7,12,12a-hexahydro-2-methyl-pyrazino[1′,2′:1,6]pyrido[3,4-]indole-1,4-dione]",about 2 μg per milliliter,practically insoluble,only very slightly soluble
less than 70 wt %,CN1CC(=O)N2[C@H](c3ccc4c(c3)OCO4)c3[nH]c4ccccc4c3C[C@@H]2C1=O,–,–,–

# Source: US20100099687A1, “TADALAFIL SOLID COMPOSITES” (Teva Pharmaceutical Industries Ltd., priority 2006, published 2010)
